Structures are written as SMILES.

The assay concerns the target T1, human IRAK4 (Homo sapiens, UniProt Q9NWZ3).
T1 construct: GST (N); made in house; host or cells: baculovirus-infected Hi5 (BTI-TN-5B1-4) insect cells
T1 sequence (Q9NWZ3 1-460): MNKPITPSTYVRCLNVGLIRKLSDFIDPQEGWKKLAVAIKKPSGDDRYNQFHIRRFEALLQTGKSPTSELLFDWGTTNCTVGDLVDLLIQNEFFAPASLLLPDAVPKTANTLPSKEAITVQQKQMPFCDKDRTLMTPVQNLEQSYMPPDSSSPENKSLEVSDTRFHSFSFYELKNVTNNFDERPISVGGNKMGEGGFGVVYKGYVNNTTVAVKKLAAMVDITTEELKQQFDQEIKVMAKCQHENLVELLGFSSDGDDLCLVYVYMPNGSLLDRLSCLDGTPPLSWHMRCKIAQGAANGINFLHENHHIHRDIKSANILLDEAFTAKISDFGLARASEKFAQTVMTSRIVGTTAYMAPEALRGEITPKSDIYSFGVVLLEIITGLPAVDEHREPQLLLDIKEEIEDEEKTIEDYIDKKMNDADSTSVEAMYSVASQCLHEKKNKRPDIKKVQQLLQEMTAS
The assay can be described thus: Human IRAK4 kinase activity inhibition assay (IRAK4 TR-FRET assay). The class given is biochemical. To be noted: 1 mM ATP, GST-human IRAK4, average or median values. How it is done:
The IRAK4-inhibitory activity of the inventive substances was measured in the IRAK4 TR-FRET assay (TR-FRET = Time Resolved Fluorescence Resonance Energy Transfer) described hereinafter.
Recombinant fusion protein from N-terminal GST (glutathione S-transferase) and human IRAK4, expressed in baculovirus-infected insect cells (Hi5, BTI-TN-5B1-4, cell line purchased from Invitrogen, catalogue No. B855-02) and purified via affinity chromatography, was used as enzyme. The substrate used for the kinase reaction was the biotinylated peptide biotin-Ahx-[…] (C-terminus in amide form) which can be purchased, for example, from Biosyntan GmbH (Berlin-Buch). For the assay, 11 different concentrations in the range from 20 µM to 0.073 nM were prepared from a 2 mM DMSO solution of the test substance. 50 nl of the respective 100fold concentrated test compound solutions in DMSO were pipetted into a black low-volume 384-well microtitre plate or a black 1536-well microtiter plate (both Greiner Bio-One, Frickenhausen, Germany), 2 µl of a solution of IRAK4 in assay buffer [50 mM HEPES pH 7.5, 5mM MgCl2, 1.0 mM dithiothreitol, 30 µM activated sodium orthovanadate, 0.1% (w/v) of bovine gamma-globulin (BGG) 0.04% (v/v) nonidet-P40 (Sigma)] were added and the mixture was incubated for 15 min to allow prebinding of the substances to the enzyme prior to the kinase reaction. […] The concentration of the IRAK4 was adjusted to the respective activity of the enzyme and set such that the assay was carried out in the linear range. Typical concentrations were in the order of about 0.2 nM. The reaction was stopped by addition of 5 µl of a solution of TR-FRET detection reagents [0.1 µM streptavidin-XL665 (Cisbio Bioassays; France, catalogue No. 610SAXLG)] and 1.5 nM anti-phosphoserine antibody [Merck Millipore, "STK Antibody", catalogue No. 35-002] and 0.6 nM LANCE EU-W1024-labelled anti-mouse-IgG antibody (Perkin-Elmer, product No. AD0077; alternatively, it is possible to use a terbium cryptate-labelled anti-mouse-IgG antibody from Cisbio Bioassays) in aqueous EDTA solution (100 mM EDTA, 0.4 % [w/v] bovine serum albumin [BSA] in 25 mM HEPES pH 7.5). The resulting mixture was incubated at 22°C for 1 h to allow formation of a complex of the biotinylated phosphorylated substrate and the detection reagents. The amount of the phosphorylated substrate was then evaluated by measuring the resonance energy transfer from europium chelate-labelled anti-mouse-IgG antibody to streptavidin-XL665. To this end, the fluorescence emissions at 620 nm and 665 nm were measured after excitation at 350 nm in a TR-FRET measuring instrument, for example a Rubystar (BMG Labtechnologies, Offenburg, Germany) or a Viewlux (Perkin-Elmer). The ratio of the emissions at 665 nm and 622 nm was taken as a measure of the amount of phosphorylated substrate. The data were normalized (enzyme reaction without test substance = 0% inhibition; all other assay components but no enzyme = 100% inhibition).
(In general: TR-FRET usually uses a lanthanide donor and a delayed reading to cut background.)
Regarding `O=C1C[C@H](Nc2nc(N3CC(O)C3)c3cnn(-c4cccc(C(F)(F)F)c4)c3n2)CN1` [Example I-32, (4S)-4-({4-(3-hydroxyazetidin-1-yl)-1-[3-(trifluoromethyl)phenyl]-1H-pyrazolo[3,4-d]pyrimidin-6-yl}amino)pyrrolidin-2-one], it took 28.7 nM to reach half-maximal inhibition (IC50).

As to `O=S1(=O)CC[C@H](Nc2nc(N3CCC(N4CCOCC4)CC3)c3cnn(-c4cccc(C(F)(F)F)c4)c3n2)C1` [Example I-33, N-[(3S)-1,1-dioxidotetrahydrothiophen-3-yl]-4-[4-(morpholin-4-yl)piperidin-1-yl]-1-[3-(trifluoromethyl)phenyl]-1H-pyrazolo[3,4-d]pyrimidin-6-amine], half-maximal inhibition (IC50) was put at 84.2 nM.

For `O=S1(=O)CC[C@H](Nc2nc(N3CC(N4CCOCC4)C3)c3cnn(-c4cccc(C(F)(F)F)c4)c3n2)C1` [Example I-34, N-[(3S)-1,1-dioxidotetrahydrothiophen-3-yl]-4-[3-(morpholin-4-yl)azetidin-1-yl]-1-[3-(trifluoromethyl)phenyl]-1H-pyrazolo[3,4-d]pyrimidin-6-amine], the IC50 (as a rule, the midpoint of a concentration-inhibition curve) turned out to be 85.1 nM.

`CS(=O)(=O)CC1CN(c2nc(N[C@@H]3CNC(=O)C3)nc3c2cnn3-c2cccc(C(F)(F)F)c2)C1` [Example I-35, (4S)-4-[(4-{3-[(methylsulfonyl)methyl]azetidin-1-yl}-1-[3-(trifluoromethyl)phenyl]-1H-pyrazolo[3,4-d]pyrimidin-6-yl)amino]pyrrolidin-2-one] registered an IC50 of 16.5 nM.

`CN1CC[C@H](Nc2nc(N3CC(CS(C)(=O)=O)C3)c3cnn(-c4cccc(C(F)(F)F)c4)c3n2)C1` [Example I-36, N-[(3S)-1-methylpyrrolidin-3-yl]-4-{3-[(methylsulfonyl)methyl]azetidin-1-yl}-1-[3-(trifluoromethyl)phenyl]-1H-pyrazolo[3,4-d]pyrimidin-6-amine] gave an IC50 of 45 nM.

`CN(C)C1(C)CN(c2nc(N[C@@H]3CNC(=O)C3)nc3c2cnn3-c2cccc(C(F)(F)F)c2)C1` [Example I-38, (4S)-4-({4-[3-(dimethylamino)-3-methylazetidin-1-yl]-1-[3-(trifluoromethyl)phenyl]-1H-pyrazolo[3,4-d]pyrimidin-6-yl}amino)pyrrolidin-2-one] returned an IC50 of 16.2 nM.

The compound `CN(C)C1(C)CN(c2nc(NC3CCS(=O)(=O)CC3)nc3c2cnn3-c2cccc(C(F)(F)F)c2)C1` [Example I-39, 4-[3-(dimethylamino)-3-methylazetidin-1-yl]-N-(1,1-dioxidotetrahydro-2H-thiopyran-4-yl)-1-[3-(trifluoromethyl)phenyl]-1H-pyrazolo[3,4-d]pyrimidin-6-amine] came in with a 50% inhibitory concentration (IC50) of 24.5 nM.

Compound `CC1(O)CN(c2nc(N[C@@H]3CCN(S(C)(=O)=O)C3)nc3c2cnn3-c2cccc(C(F)(F)F)c2)C1` [Example I-41-1, 3-methyl-1-(6-{[(3R)-1-(methylsulfonyl)pyrrolidin-3-yl]amino}-1-[3-(trifluoromethyl)-phenyl]-1H-pyrazolo[3,4-d]pyrimidin-4-yl)azetidin-3-ol] showed a concentration for half-maximal inhibition (IC50) of 250 nM.

The compound `CC1(O)CN(c2nc(N[C@H]3CCN(S(C)(=O)=O)C3)nc3c2cnn3-c2cccc(C(F)(F)F)c2)C1` [Example I-41-2, 3-methyl-1-(6-{[(3S)-1-(methylsulfonyl)pyrrolidin-3-yl]amino}-1-[3-(trifluoromethyl)-phenyl]-1H-pyrazolo[3,4-d]pyrimidin-4-yl)azetidin-3-ol] registered an IC50 of 400 nM.

For `CN(C)C1CN(c2nc(NC3CCS(=O)(=O)CC3)nc3c2cnn3-c2cccc(C(F)(F)F)c2)C1` [Example I-42, 4-[3-(dimethylamino)azetidin-1-yl]-N-(1,1-dioxidotetrahydro-2H-thiopyran-4-yl)-1-[3-(trifluoromethyl)phenyl]-1H-pyrazolo[3,4-d]pyrimidin-6-amine], half-maximal inhibition (IC50) required 32 nM.

For the compound `CC1(Nc2nc(N3CC(N4CCOCC4)C3)c3cnn(-c4cccc(C(F)(F)F)c4)c3n2)CCS(=O)(=O)C1` (centres unmarked) [Example I-43, N-(3-methyl-1,1-dioxidotetrahydrothiophen-3-yl)-4-[3-(morpholin-4-yl)azetidin-1-yl]-1-[3-(trifluoromethyl)phenyl]-1H-pyrazolo[3,4-d]pyrimidin-6-amine], the half-inhibitory concentration (IC50) worked out at 280 nM.

On to `CN(C)C1CN(c2nc(N[C@@H]3CNC(=O)C3)nc3c2cnn3-c2cccc(C(F)(F)F)c2)C1` [Example I-44, (4S)-4-({4-[3-(dimethylamino)azetidin-1-yl]-1-[3-(trifluoromethyl)phenyl]-1H-pyrazolo-[3,4-d]pyrimidin-6-yl}amino)pyrrolidin-2-one], for which the IC50 came to 15.7 nM.

`O=C(O)CC1CN(c2nc(N[C@@H]3CNC(=O)C3)nc3c2cnn3-c2cccc(C(F)(F)F)c2)C1` [Example I-50, [1-(6-{[(3S)-5-oxopyrrolidin-3-yl]amino}-1-[3-(trifluoromethyl)phenyl]-1H-pyrazolo[3,4-d]pyrimidin-4-yl)azetidin-3-yl]acetic acid]: the IC50 was 48.4 nM.

In the case of `O=S1(=O)CCN(C2CN(c3nc(NC4CC4)nc4c3cnn4-c3cccc(C(F)(F)F)c3)C2)CC1` [Example I-53, N-cyclopropyl-4-[3-(1,1-dioxidothiomorpholin-4-yl)azetidin-1-yl]-1-[3-(trifluoromethyl)-phenyl]-1H-pyrazolo[3,4-d]pyrimidin-6-amine], the midpoint of inhibition, the IC50, lay at 99.8 nM.

`CN(C)C1CN(c2nc(NC3CC(F)(F)C3)nc3c2cnn3-c2cccc(C(F)(F)F)c2)C1` [Example I-54, N-(3,3-difluorocyclobutyl)-4-[3-(dimethylamino)azetidin-1-yl]-1-[3-(trifluoromethyl)-phenyl]-1H-pyrazolo[3,4-d]pyrimidin-6-amine] displayed a 50% inhibitory concentration (IC50) of 297 nM.

`CS(=O)(=O)[C@H]1C[C@@H](Nc2nc(N3CC(N4CCOCC4)C3)c3cnn(-c4cccc(C(F)(F)F)c4)c3n2)C1` [Example I-55, N-[cis-3-(methylsulfonyl)cyclobutyl]-4-[3-(morpholin-4-yl)azetidin-1-yl]-1-[3-(trifluoromethyl)phenyl]-1H-pyrazolo[3,4-d]pyrimidin-6-amine]: the midpoint of inhibition, the IC50, lay at 15.6 nM.

As for `CC(C)(O)C1CCN(c2nc(N[C@H]3C[C@@](O)(C(F)(F)F)C3)nc3c2cnn3-c2cccc(C(F)(F)F)c2)CC1` [Example I-63, trans-3-({4-[4-(2-hydroxypropan-2-yl)piperidin-1-yl]-1-[3-(trifluoromethyl)phenyl]-1H-pyrazolo[3,4-d]pyrimidin-6-yl}amino)-1-(trifluoromethyl)cyclobutanol], inhibition was half-maximal at 30.6 nM (IC50).

The compound `CC(C)(O)C1CCN(c2nc(N[C@@H]3CN4CCC3CC4)nc3c2cnn3-c2cccc(C(F)(F)F)c2)CC1` [Example I-64-2] showed an IC50 of 58.9 nM.

Consider `CC(C)(O)C1CCN(c2nc(N[C@H]3C[C@@](C)(C(=O)O)C3)nc3c2cnn3-c2cccc(C(F)(F)F)c2)CC1` [Example I-66, cis-3-({4-[4-(2-hydroxypropan-2-yl)piperidin-1-yl]-1-[3-(trifluoromethyl)phenyl]-1H-pyrazolo[3,4-d]pyrimidin-6-yl}amino)-1-methylcyclobutanecarboxylic acid], for which the IC50 was 138 nM.

`O[C@H]1COC[C@@H]1Nc1nc(N2CC(N3CCOCC3)C2)c2cnn(-c3cccc(C(F)(F)F)c3)c2n1` [Example I-69, (3R,4S)-4-({4-[3-(morpholin-4-yl)azetidin-1-yl]-1-[3-(trifluoromethyl)phenyl]-1H-pyrazolo[3,4-d]pyrimidin-6-yl}amino)tetrahydrofuran-3-ol]: the 50% inhibitory concentration (IC50) is 26.2 nM.
